{"source": "paper PMC5855688", "about": "“BC-Box Motif-Mediated Neuronal Differentiation of Somatic Stem Cells” (International Journal of Molecular Sciences, 2018)", "type_in_all_cases": "cell-based, rat (neonate Wistar)", "key": {"[1]": {"tested_on": "skin-derived precursors (SKPs)", "assay": "Western blot analysis of neuronal markers in NDD peptide-treated cells", "details": "Figure 6A; for Expression of TH: tyrosine hydroxylase; for Expression of ChAT: choline acetyltransferase; for Expression of GAD: glutamic acid decarboxylase", "procedure": "(§1) Rodent skin-derived precursor cells (SKPs), which can differentiate to neurons, were used. SKPs were previously isolated from the back dermis of neonate Wistar rats by the authors. These cells were cultured in growth medium composed of DMEM/F12 (1:1; Gibco, Grand Island, NY, USA) containing 2% B27 supplement (Gibco), 20 ng/mL epidermal growth factor (EGF; Upstate Biotechnology, Lake Placid, NY, USA), and 40 ng/mL bFGF (PeproTech EC Ltd., Rocky Hill, NJ, USA) in a humidified incubator at 37 °C with 5% CO2. The floating clusters of cultured cells were centrifuged and dissociated into a single-cell suspension by use of a Pasteur pipette with a flame-polished tip. These single cells were then re-suspended into at a concentration of 50,000 cells/mL for passage or experiments.\n(§2) For neuronal differentiation, cells were dissociated into a single-cell suspension by use of a Pasteur pipette and re-suspended into a concentration of 50,000 cells/mL in DMEM/F12 without serum, neurotrophic factors or growth factors. Then, the cells were cultured on poly-L-lysine-coated dishes or cover glasses, and the synthesized peptides at concentrations from 1 to 5 μM were added to the culture medium and delivered into the cells. Three days or more later, the cells were used for morphological, immunocytochemical, immunohistochemical, electrophysiological and immunoprecipitation studies, as well as for Western blot analysis.\nCultured cells were washed 3 times in cold PBS and then scraped into ice-cold PBS. After incubation on ice for 10 min, the cells were lysed with lysis buffer and centrifuged, after which the supernatants were collected. Each sample was separated by SDS-PAGE under reducing conditions and transferred electrophoretically to nitrocellulose filters. Non-specific binding of antibody was blocked by incubation with 5% donkey serum for 1 h. Western blots were probed with anti-MAP2 antibody, anti-NFH antibody, anti-ChAT antibody, anti-GAD antibody, anti-rhodopsin antibody, anti-TH antibody, and anti-elongin C antibody (Santa Cruz, San Diego, CA, USA) followed by horseradish peroxidase-conjugated secondary antibodies. Protein bands were detected by using a chemical luminescence detection system (ECL Plus Western Blotting Reagent Pack, Amersham, Hemel Hempstead, UK). Images were analyzed with LAS-1000 (Fujifilm, Tokyo, Japan), and the density of the bands was determined by using Image Gauge software (Fujifilm)."}, "[2]": {"tested_on": "skin-derived precursors (SKPs)", "assay": "Neurite outgrowth / morphological evaluation of neuronal differentiation", "procedure": "as §1, §2\nNeurite outgrowth with length exceeding the diameter of the neuronal soma is often assessed as a morphological index of neuronal differentiation. After a single-cell suspension was made by pipetting, the cells were cultured in DMEN/F12 medium alone at 37 °C in a 5% CO2 incubator. Thereafter, neurite outgrowth was evaluated with the following 4 levels: +++, for above 50% of the cells showing neurite outgrowth; ++, for 20–50% with neurite outgrowth; +, for 5–19% having neurite outgrowth; and −, for below 5% of the cells with neurite outgrowth."}, "[3]": {"tested_on": "skin-derived precursors (SKPs)", "assay": "Immunocytochemistry of neuronal markers in NDD peptide-treated cells", "details": "Figure 6B", "procedure": "as §1, §2\nCultured cells were fixed with 4% paraformaldehyde in PBS (Phosphate buffered saline) for 10 min at room temperature. Cells were incubated for 1 h at room temperature with primary antibodies. Antibodies against anti-MAP2 antibody (Sigma-Aldrich, St. Louis, MO, USA), anti-Neurofilment-H (NFH) antibody (Sigma-Aldrich), anti-NeuN antibody (Merk Millipore, Billerica, MA, USA), anti-GFAP antibody (DAKO, Santa Clara, CA, USA), anti-tyrosine hydroxylase (TH) antibody (Merk Millipore, Billerica, MA, USA), anti-choline acetyl transferase (ChAT) antibody (Abbiotec, San Diego, CA, USA), anti-glutamic acid decaboxylase (GAD) antibody (Enzo Life Sciences, Flamingdale, NY, USA), and anti-rhodopsin antibody (Santa Cruz, San Diego, CA, USA) were used. After incubation with primary antibody, the cells were incubated for 1 h with secondary antibody, either rhodamine-conjugated anti-mouse IgG (Sigma-Aldrich) or FITC-conjugated anti-rabbit IgG (Sigma-Aldrich). Nuclear counterstaining was done with DAPI (Molecular Probes, Eugene, OR, USA) or TO-PRO-3 (Molecular Probes), and observations were made with a fluorescence microscope system (FV300, Olympus, Tokyo, Japan). We counted the number of immuno-positive cells with a given antibody in 4 to 6 random non-overlapping visual fields (50–200 cells per field) in each experiment. At least 2 experiments were performed per condition. The degree of positivity was expressed as the rate of immuno-positive cells to the total number of nuclei stained with DAP1 or TO-PRO-3."}, "[4]": {"details": "BC-box motif plus five C-terminal amino acids peptides, delivered with TAT PTD, 1 to 5 μM"}, "[5]": {"details": "BC-box motif alone (10-residue) peptides, delivered with TAT PTD, 1 to 5 μM"}}}
{"sequence": "YARAAARQARASLQYLCRFVIRQYTR [SOCS6 BC-box motif plus five amino acids]", "values": [{"measurement": "Expression of TH", "setting": "[1]", "value": "moderate"}, {"measurement": "Neurite Outgrowth Activity", "setting": "[2]; [4]", "value": "++ (20–50% with neurite outgrowth)"}, {"measurement": "Rate of TH-positive (dopaminergic neuron-like) cells", "setting": "[3]", "value": "high rates of positive cells"}]}
{"sequence": "YARAAARQARASLKHLCRKALRSFLT [WSB2 BC-box motif plus five amino acids]", "values": [{"measurement": "Expression of ChAT", "setting": "[1]", "value": "moderate"}, {"measurement": "Expression of GAD", "setting": "[1]", "value": "expressed highly"}, {"measurement": "Expression of TH", "setting": "[1]", "value": "moderate"}, {"measurement": "Neurite Outgrowth Activity", "setting": "[2]; [4]", "value": "++ (20–50% with neurite outgrowth)"}, {"measurement": "Rate of GAD-positive (GABAnergic neuron-like) cells", "setting": "[3]", "value": "high rates of positive cells"}, {"measurement": "Rate of TH-positive (dopaminergic neuron-like) cells", "setting": "[3]", "value": "high rates of positive cells"}]}
{"sequence": "YARAAARQARASLQYLCRFVI [SOCS6 BC-box motif alone]", "values": [{"measurement": "Neurite Outgrowth Activity", "setting": "[2]; [5]", "value": "- (below 5% of the cells with neurite outgrowth)"}]}
{"sequence": "YARAAARQARAPLQELCRQRIVAAVG [SOCS1 BC-box motif plus five amino acids]", "values": [{"measurement": "Expression of ChAT", "setting": "[1]", "value": "moderate"}, {"measurement": "Expression of TH", "setting": "[1]", "value": "moderate"}, {"measurement": "Neurite Outgrowth Activity", "setting": "[2]; [4]", "value": "++ (20–50% with neurite outgrowth)"}]}
{"sequence": "YARAAARQARASLQHLCRFRIRQLVR [SOCS7 BC-box motif plus five amino acids]", "values": [{"measurement": "Expression of ChAT", "setting": "[1]", "value": "high"}, {"measurement": "Expression of TH", "setting": "[1]", "value": "pronounced"}, {"measurement": "Neurite Outgrowth Activity", "setting": "[2]; [4]", "value": "+++ (above 50% of the cells showing neurite outgrowth)"}, {"measurement": "Rate of ChAT-positive (cholinergic neuron-like) cells", "setting": "[3]", "value": "high rates of positive cells"}]}
{"sequence": "YARAAARQARASLQHLCRFRI [SOCS7 BC-box motif alone]", "values": [{"measurement": "Neurite Outgrowth Activity", "setting": "[2]; [5]", "value": "+ (5–19% having neurite outgrowth)"}]}
{"sequence": "YARAAARQARA PLQELCRQRI [SOCS1 BC-box motif alone]", "values": [{"measurement": "Neurite Outgrowth Activity", "setting": "[2]; [5]", "value": "- (below 5% of the cells with neurite outgrowth)"}]}
{"sequence": "YARAAARQARATLQHFCRLAINKCT G [SOCS2 BC-box motif plus five amino acids]", "values": [{"measurement": "Expression of rhodopsin", "setting": "[1]", "value": "moderate"}, {"measurement": "Expression of GAD", "setting": "[1]", "value": "expressed highly"}, {"measurement": "Neurite Outgrowth Activity", "setting": "[2]; [4]", "value": "+ (5–19% having neurite outgrowth)"}]}
{"sequence": "YARAAARQARATLQHLCRKTVNGHLD [SOCS3 BC-box motif plus five amino acids]", "values": [{"measurement": "Expression of TH", "setting": "[1]", "value": "moderate"}, {"measurement": "Neurite Outgrowth Activity", "setting": "[2]; [4]", "value": "++ (20–50% with neurite outgrowth)"}, {"measurement": "Rate of GAD-positive (GABAnergic neuron-like) cells", "setting": "[3]", "value": "high rates of positive cells"}]}
{"sequence": "YARAAARQARAMPRRAENWDEAEV [VHL(1–13), pVHL fragment conjugated with PTD]", "values": [{"measurement": "Morphological change", "setting": "[2]; phase-contrast microscopy, Figure 1E, peptides at 1 to 5 μM", "value": "no morphological change"}]}
{"sequence": "YARAAARQARATLLESSARTI [LRR-1 BC-box motif alone]", "values": [{"measurement": "Neurite Outgrowth Activity", "setting": "[2]; [5]", "value": "- (below 5% of the cells with neurite outgrowth)"}]}
{"sequence": "YARAAARQARATLQHFCRLAI [SOCS2 BC-box motif alone]", "values": [{"measurement": "Neurite Outgrowth Activity", "setting": "[2]; [5]", "value": "- (below 5% of the cells with neurite outgrowth)"}]}
{"sequence": "YARAAARQARASLTHLCRLEIRSSIK [ASB3 BC-box motif plus five amino acids]", "values": [{"measurement": "Rate of GAD-positive (GABAnergic neuron-like) cells", "setting": "[3]", "value": "high rates of positive cells"}, {"measurement": "Rate of TH-positive (dopaminergic neuron-like) cells", "setting": "[3]", "value": "high rates of positive cells"}]}
{"sequence": "YARAAARQARASLQHICRTVI [SOCS4 BC-box motif alone]", "values": [{"measurement": "Neurite Outgrowth Activity", "setting": "[2]; [5]", "value": "- (below 5% of the cells with neurite outgrowth)"}]}
{"sequence": "YARAAARQARA SLKHLCRKAL [WSB2 BC-box motif alone]", "values": [{"measurement": "Neurite Outgrowth Activity", "setting": "[2]; [5]", "value": "- (below 5% of the cells with neurite outgrowth)"}]}
{"sequence": "YARAAARQARA TLKERCLQVV [VHL(157–166), pVHL BC-box motif alone, conjugated with PTD]", "values": [{"measurement": "Neurite Outgrowth Activity", "setting": "[2]; [5]", "value": "- (below 5% of the cells with neurite outgrowth)"}, {"measurement": "Neurite Outgrowth Activity", "setting": "[2]; Figure 2A, rates of cells having neurites, peptides at 1 to 5 μM, VHL157–168 vs VHL(157–171) p < 0.005", "value": "scarcely did"}]}
{"sequence": "YARAAARQARA SLQYICRAVI [SOCS5 BC-box motif alone]", "values": [{"measurement": "Neurite Outgrowth Activity", "setting": "[2]; [5]", "value": "+ (5–19% having neurite outgrowth)"}]}
{"sequence": "YARAAARQARASLQHICRTVICNCTT [SOCS4 BC-box motif plus five amino acids]", "values": [{"measurement": "Expression of rhodopsin", "setting": "[1]", "value": "moderate"}, {"measurement": "Expression of GAD", "setting": "[1]", "value": "expressed highly"}, {"measurement": "Neurite Outgrowth Activity", "setting": "[2]; [4]", "value": "++ (20–50% with neurite outgrowth)"}]}
{"sequence": "YARAAARQARATLQHLCRKTV [SOCS3 BC-box motif alone]", "values": [{"measurement": "Neurite Outgrowth Activity", "setting": "[2]; [5]", "value": "- (below 5% of the cells with neurite outgrowth)"}]}
